# From patent publication US20070026402A1, “Genetic marker of response to atypical antipsychotics and antidepressants methods for use thereof” (priority 2003, published 2007)
# “Also recorded” adds a separate entry of the source.
# How the values were obtained:
# PTSD patients [1] = test: General Health Questionnaire-28 (GHQ) outcome of paroxetine treatment in PTSD; assay type: in vivo, human; details: for GHQ total score, baseline vs treatment: 8 weeks
# Text: Sixty-five unrelated male Caucasian patients with the diagnosis of PTSD were recruited for study. All subjects were Vietnam combat veterans who had served in the Australian armed forces. None were being treated with psychotropic medication. […] confirmed by all patients exceeding the clinical cut-off score of 94 on the Mississippi Scale for combat-related posttraumatic stress disorder (Zatzick et al., 1997). The validity and reliability of the Mississippi scale ate well established in veterans (Keane et al., 1988). Patients then underwent clinical history taking by a psychiatrist or by a clinical nurse (EP). Demographic data and ethnic background were also obtained. […] The General Health Questionnaire-28 (GHQ) was administered at baseline (0-7 days on paroxetine) and at the end of treatment (8 weeks after commencement on paroxetine). This questionnaire measures four psychopathological factors particularly relevant to PTSD and its comorbid psychiatric conditions: somatic concerns (GHQ1), anxiety/insomnia (GHQ2), social dysfunction (GHQ3) and depression (GHQ4). The GHQ has been widely validated internationally as a means of detecting psychiatric […] sensitive to change (Ormel et al., 1989). The GHQ has utility as a follow-up measure of veteran mental health following exposure to combat (Deahl et al., 1994) and is sensitive to changes in combat-related PTSD symptoms (Ward, 1997). Information coded from the interviews, GHQ and genotyping results were entered into a computer database. Nominal data were analyzed by Yates corrected X^2 test and continuous data, with repeated measures, were analyzed by paired t-test or by analysis of variance. P values≦0.05 were considered statistically significant.
# PTSD patients [2] = test: Discontinuation and adverse events during paroxetine treatment in PTSD; assay type: in vivo, human; details: for Subjects with adverse events relating to anxiety, insomnia, headache or tremor / Subjects with erectile dysfunction, decreased libido or delayed ejaculation: group that discontinued
# Description: Sixty-five unrelated male Caucasian patients with the diagnosis of PTSD were recruited for study. All subjects were Vietnam combat veterans who had served in the Australian armed forces. None were being treated with psychotropic medication.
# After initial assessment, patients were medically examined and then were started on 20 mg/day of paroxetine for the first two weeks followed by a 40 mg/day dose for the remaining six weeks.
# Patient assessments were conducted blind to their DRD2 allelic status. In addition to their standard treatment, patients were monitored twice for adverse events. Drug compliance was checked by pill count. All participants provided written informed consent and were able to terminate treatment without prejudice. However, those terminating participation were asked to provide reasons for their withdrawal. Institutional ethics approval was obtained from the Greenslopes Private Hospital.
# PTSD = details: compared to 32% with placebo; cited from earlier work
smiles,measurement,setting,value
CN1CCN(C2=Nc3cc(Cl)ccc3Nc3ccccc32)CC1 [Clozapine],Number of patients exceeding hyperprolactinemia cut-off levels,Serum prolactin; Clozapine and Olanzapine patients combined,7
same,Hyperprolactinemic patients as share of the sample,"Serum prolactin; Clozapine and Olanzapine patients combined, sample of 144",5%
same,Prolactin levels in A1+ compared to A1− allelic patients,Serum prolactin; P=0.04,more than two fold higher
Fc1ccc([C@@H]2CCNC[C@H]2COc2ccc3c(c2)OCO3)cc1 [paroxetine],GHQ3 (social dysfunction) subscale score over the course of treatment,PTSD patients [1]; A1+ allelic subjects,significant improvement
same,GHQ3 (social dysfunction) subscale score over the course of treatment,PTSD patients [1]; A1− allelic subjects,no such improvement
same,"GHQ total score, baseline vs treatment",PTSD patients [1]; A1− patients,no significant improvement; also recorded: did not
same,"GHQ total score, baseline vs treatment",PTSD patients [1]; total 45 patients,significant improvement
same,GHQ1 (somatic concerns) subscale score over the course of treatment,PTSD patients [1]; total patient group,not significantly reduced
same,GHQ2 (anxiety/insomnia) subscale score over the course of treatment,PTSD patients [1]; total patient group,significantly reduced
same,GHQ3 (social dysfunction) subscale score over the course of treatment,PTSD patients [1]; total patient group,significant improvement
same,GHQ4 (depression) subscale score during treatment,PTSD patients [1]; total patient group,significant improvement
same,Number of patients who discontinued treatment,PTSD patients [2]; A1+ (of 26),4
same,"Subjects with adverse events relating to anxiety, insomnia, headache or tremor",PTSD patients [2]; A1+,2
same,"Subjects with erectile dysfunction, decreased libido or delayed ejaculation",PTSD patients [2]; A1+,2
same,Number of patients who discontinued treatment,PTSD patients [2]; A1− (of 39),16
same,"Subjects with adverse events relating to anxiety, insomnia, headache or tremor",PTSD patients [2]; A1−,11
same,"Subjects with erectile dysfunction, decreased libido or delayed ejaculation",PTSD patients [2]; A1−,5
same,Number of patients who discontinued treatment,PTSD patients [2]; of the 65 patients who entered the study,20
CN[C@H]1CC[C@@H](c2ccc(Cl)c(Cl)c2)c2ccccc21 [sertraline],Responder rate,PTSD,53%
